This is an account of results in patent US6878705B2 (dated 2005).

In the case of `Cn1cc(C(=O)NCc2ccc(Cl)cc2)c(=O)c2cc(CN3CCOCC3)oc21`, the melting point (in general, the temperature, or range, at which the solid turns liquid) was in the range of 211 to 212 °C.
The compound `CN(Cc1cc2c(=O)c(C(=O)NCc3ccc(C(F)(F)F)cc3)cn(C)c2o1)C[C@@H](O)c1ccco1` yielded a melting point of 113 to 115 °C.
`O=C(NCc1ccc(Cl)cc1)c1cn(CCc2ccccc2)c2oc(CN3CCOCC3)cc2c1=O` showed a melting point of 150 to 153 °C.
Regarding `CCN(CC)CCn1cc(C(=O)NCc2ccc(Cl)cc2)c(=O)c2cc(CN3CCOCC3)oc21`, the melting point is 131 to 134 °C.
As for `CC(O)CNCc1cc2c(=O)c(C(=O)NCc3ccc(Cl)cc3)cn(C)c2o1` (stereo not shown), the melting point fell in the range of 172 to 173 °C.
To `CC(O)CN(C)Cc1cc2c(=O)c(C(=O)NCc3ccc(Cl)cc3)cn(C)c2o1` (stereo not shown) belongs 152 °C; to `Cn1cc(C(=O)NCc2ccc(Cl)cc2)c(=O)c2cc(CN3CC[C@@H](O)C3)oc21`, 189 to 190 °C.
`CN(Cc1cc2c(=O)c(C(=O)NCc3ccc(Cl)cc3)cn(C)c2o1)CC(O)c1ccccc1` (stereo not shown) gave a melting point of 118 to 121 °C.
To `CN(Cc1cc2c(=O)c(C(=O)NCc3ccc(Cl)cc3)cn(C)c2o1)CC(O)c1ccc(O)cc1` (stereo not shown) belongs 117 to 122 °C; to `COc1cccc(C(O)CN(C)Cc2cc3c(=O)c(C(=O)NCc4ccc(Cl)cc4)cn(C)c3o2)c1` (stereo not shown), 116 to 120 °C; to `CN(Cc1cc2c(=O)c(C(=O)NCc3ccc(Cl)cc3)cn(C)c2o1)CC(O)c1cccnc1` (stereo not shown), 145 to 149 °C.
Then `Cc1ccc(C(O)CN(C)Cc2cc3c(=O)c(C(=O)NCc4ccc(Cl)cc4)cn(C)c3o2)o1` (stereo not shown), with 130 to 132 °C; and `CN(Cc1cc2c(=O)c(C(=O)NCc3ccc(Cl)cc3)cn(C)c2o1)CC(O)c1ccoc1` (stereo not shown), with 93 to 97 °C.
In turn, `CN(Cc1cc2c(=O)c(C(=O)NCc3ccc(Cl)cc3)cn(C)c2o1)CC(O)c1cc2ccccc2o1` (stereo not shown) gave a melting point of 176 to 179 °C.
`CN(Cc1cc2c(=O)c(C(=O)NCc3ccc(Cl)cc3)cn(C)c2o1)CC(O)c1cccs1` (stereo not shown) had a melting point of 145 to 147 °C.
As to `CN(Cc1cc2c(=O)c(C(=O)NCc3ccc(Cl)cc3)cn(C)c2o1)CC(O)c1ccc2ccccc2n1` (stereo not shown), the melting point is 154 to 159 °C (dec.).
In the case of `CN(Cc1cc2c(=O)c(C(=O)NCc3ccc(Cl)cc3)cn(C)c2o1)CC(O)c1cccn1C` (stereo not shown), the melting point was 122 to 124 °C (dec.).
As to `CN(Cc1cc2c(=O)c(C(=O)NCc3ccc(Cl)cc3)cn(C)c2o1)CC(O)c1ccc(C#N)s1` (stereo not shown), the melting point was 190 to 195 °C (dec.).
`CN(Cc1cc2c(=O)c(C(=O)NCc3ccc(Cl)cc3)cn(C)c2o1)CC(O)c1nccs1` (stereo not shown): the melting point was 114 to 116 °C.
In the case of `CN(Cc1cc2c(=O)c(C(=O)NCc3ccc(Cl)cc3)cn(C)c2o1)CC(O)c1ccc(-c2ccccc2)o1` (stereo not shown), the melting point is 115 to 119 °C.
`Cc1cc(C(O)CN(C)Cc2cc3c(=O)c(C(=O)NCc4ccc(Cl)cc4)cn(C)c3o2)oc1C` (stereo not shown) came in with a melting point of 140 to 140.5 °C.
Compound `CN(Cc1cc2c(=O)c(C(=O)NCc3ccc(Cl)cc3)cn(C)c2o1)CC(O)c1cnccn1` (stereo not shown) displayed a melting point of 148 to 151 °C.
`CN(Cc1cc2c(=O)c(C(=O)NCc3ccc(Cl)cc3)cn(C)c2o1)C[C@@H](O)c1ncccn1` returned a melting point of 127 to 129 °C.
With `CN(Cc1cc2c(=O)c(C(=O)NCc3ccc(Cl)cc3)cn(C)c2o1)CC(CO)c1ccccc1` (stereo not shown), the melting point was 141 to 148 °C.
Compound `Cn1cc(C(=O)NCc2ccc(Cl)cc2)c(=O)c2ccoc21` yielded a melting point of 197 to 205 °C.
To `Cn1cc(C(=O)NCc2ccc(Cl)cc2)c(=O)c2cc(Br)oc21` belongs 232 to 233 °C; to `Cn1cc(C(=O)NCc2ccc(Cl)cc2)c(=O)c2cc(C#CCCO)oc21`, 242 to 243 °C (dec.).
`Cn1cc(C(=O)NCc2ccc(Cl)cc2)c(=O)c2cc(CCCCO)oc21` registered a melting point of 157 to 160 °C.
Regarding `Cn1cc(C(=O)NCc2ccc(Cl)cc2)c(=O)c2cc(C#CCCCO)oc21`, the melting point was 215 to 219 °C (dec.).
Compound `Cn1cc(C(=O)NCc2ccc(Cl)cc2)c(=O)c2cc(CCCCCO)oc21` showed a melting point of 151 to 152 °C.
`Cn1cc(C(=O)NCc2ccc(Cl)cc2)c(=O)c2cc(C#CC(O)c3ccccc3)oc21` (stereo not shown): the melting point was 209 to 211 °C (dec.).
Regarding `Cn1cc(C(=O)NCc2ccc(Cl)cc2)c(=O)c2cc(C#CCC(O)c3ccccc3)oc21` (stereo not shown), the melting point is 202 to 203 °C (dec.).
`Cn1cc(C(=O)NCc2ccc(Cl)cc2)c(=O)c2cc(CO)oc21` yielded a melting point of 229 to 230 °C.
`O=C(NCc1ccc(Cl)cc1)c1cc2c(O)c(C(=O)NCc3ccc(Cl)cc3)cnc2o1`: the melting point is 230 to 245 °C.
Regarding `Cn1cc(C(=O)NCc2ccc(Cl)cc2)c(=O)c2cc(CN3CCC[C@@H]3[C@@H](O)c3ccccc3)oc21` (relative stereo), the melting point is 141 to 150 °C (dec.).
Compound `CN(Cc1cc2c(=O)c(C(=O)NCc3ccc(Cl)cc3)cn(C)c2o1)CC(O)c1ccccn1` (stereo not shown) [41] showed a melting point of 130 to 132 °C.
As to `CN(Cc1cc2c(=O)c(C(=O)NCc3ccc(Cl)cc3)cn(C)c2o1)CC(O)c1ccccn1` (stereo not shown) [42], the melting point is 133 to 138 °C.
